Values joined by “and” are separate entries in the source; they are usually repeats but may differ in a detail not shown here. Equal entries are not always repeated. “Also recorded” adds a separate entry of the source. Each block holds one compound with its values, some of them ahead of it.
Columns and labels:
[1] = target: native α7 nAChR in hippocampal neurons (Rattus norvegicus, UniProt Q05941); format: cell-based
[2] = target: T1, human α7 nAChR (Homo sapiens, UniProt P36544); test: Two-electrode voltage clamp; format: cell-based; conditions: for Concentration needed to reach 30% of the response of ACh: oocyte assay; for Maximal response vs 3 mmol/L ACh: peak current normalized to 3 mmol/L ACh
[3] = system: CA1 hippocampal pyramidal neurons; test: Spontaneous IPSC recordings in hippocampal brain slices; format: cell-based, rat
[4] = system: ERK1/2 phosphorylation in PC12 cells; test: Western blot of ERK1/2 phosphorylation in PC12 cells; format: cell-based, rat; conditions: pre-incubation 10 min
[5] = target: T2, human 5-HT3A receptor (Homo sapiens, UniProt P46098); test: TEVC in Xenopus oocytes, selectivity on 5-HT3A; format: cell-based
T2 sequence (P46098 24-478): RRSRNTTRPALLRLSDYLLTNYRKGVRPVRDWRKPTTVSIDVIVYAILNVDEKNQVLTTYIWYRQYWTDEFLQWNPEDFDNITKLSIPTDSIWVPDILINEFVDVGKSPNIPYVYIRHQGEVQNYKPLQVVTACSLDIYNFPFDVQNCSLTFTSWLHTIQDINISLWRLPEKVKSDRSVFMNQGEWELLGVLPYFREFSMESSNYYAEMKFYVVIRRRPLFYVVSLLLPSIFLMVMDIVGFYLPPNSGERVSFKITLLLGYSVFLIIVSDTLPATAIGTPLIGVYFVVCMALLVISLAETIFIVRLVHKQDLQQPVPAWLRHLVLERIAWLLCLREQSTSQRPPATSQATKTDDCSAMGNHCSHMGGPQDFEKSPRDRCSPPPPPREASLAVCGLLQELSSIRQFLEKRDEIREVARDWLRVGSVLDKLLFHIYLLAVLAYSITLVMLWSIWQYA

[6] = target: human α3β3γ2 GABAA receptor (Homo sapiens, UniProt P18507+P28472+P34903); test: TEVC in Xenopus oocytes, GABAA α3β3γ2; format: cell-based
[7] = target: rat α4β2 nAChR (Rattus norvegicus, UniProt P09483+P12390); test: TEVC in Xenopus oocytes, selectivity on α4β2; format: cell-based
[8] = target: human α2β3γ2 GABAA receptor (Homo sapiens, UniProt P18507+P28472+P47869); test: TEVC in Xenopus oocytes, GABAA α2β3γ2; format: cell-based
[9] = target: rat α3β4 nAChR (Rattus norvegicus, UniProt P04757+P12392); test: TEVC in Xenopus oocytes, selectivity on α3β4; format: cell-based
[10] = target: T1, human α7 nAChR; test: TEVC, inhibition; format: cell-based
[11] = target: T3, α7 nAChR (Rattus norvegicus, UniProt Q05941); conditions: Ki ratio vs ACh
[12] = target: T3, α7 nAChR; test: biochemical
[13] = target: human α5β3γ2 GABAA receptor (Homo sapiens, UniProt P18507+P28472+P31644); test: TEVC in Xenopus oocytes, GABAA α5β3γ2; format: cell-based
[14] = target: human α1β3γ2 GABAA receptor (Homo sapiens, UniProt P14867+P18507+P28472); test: TEVC in Xenopus oocytes, GABAA α1β3γ2; format: cell-based
[15] = 100 μmol/L co-applied with 1 μmol/L GABA
[16] = 100 μmol/L, pre-incubation 1 min
[17] = Br-IQ17B alone, up to 100 μmol/L

Chain of native α7 nAChR in hippocampal neurons (Q05941 23-502): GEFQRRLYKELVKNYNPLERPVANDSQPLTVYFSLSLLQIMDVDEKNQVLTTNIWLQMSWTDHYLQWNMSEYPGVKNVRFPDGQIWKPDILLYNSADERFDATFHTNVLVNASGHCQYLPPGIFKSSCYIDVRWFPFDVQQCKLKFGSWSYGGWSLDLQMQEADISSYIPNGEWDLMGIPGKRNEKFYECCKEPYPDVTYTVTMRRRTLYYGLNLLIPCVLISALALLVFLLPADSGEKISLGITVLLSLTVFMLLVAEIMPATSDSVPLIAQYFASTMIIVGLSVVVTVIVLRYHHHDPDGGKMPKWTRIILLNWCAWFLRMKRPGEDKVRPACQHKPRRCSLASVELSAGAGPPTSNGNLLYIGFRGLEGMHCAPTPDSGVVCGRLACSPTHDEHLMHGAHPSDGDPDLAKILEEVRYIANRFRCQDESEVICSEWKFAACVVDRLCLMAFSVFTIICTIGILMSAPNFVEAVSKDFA
Chain of rat α4β2 nAChR (P09483 31-630): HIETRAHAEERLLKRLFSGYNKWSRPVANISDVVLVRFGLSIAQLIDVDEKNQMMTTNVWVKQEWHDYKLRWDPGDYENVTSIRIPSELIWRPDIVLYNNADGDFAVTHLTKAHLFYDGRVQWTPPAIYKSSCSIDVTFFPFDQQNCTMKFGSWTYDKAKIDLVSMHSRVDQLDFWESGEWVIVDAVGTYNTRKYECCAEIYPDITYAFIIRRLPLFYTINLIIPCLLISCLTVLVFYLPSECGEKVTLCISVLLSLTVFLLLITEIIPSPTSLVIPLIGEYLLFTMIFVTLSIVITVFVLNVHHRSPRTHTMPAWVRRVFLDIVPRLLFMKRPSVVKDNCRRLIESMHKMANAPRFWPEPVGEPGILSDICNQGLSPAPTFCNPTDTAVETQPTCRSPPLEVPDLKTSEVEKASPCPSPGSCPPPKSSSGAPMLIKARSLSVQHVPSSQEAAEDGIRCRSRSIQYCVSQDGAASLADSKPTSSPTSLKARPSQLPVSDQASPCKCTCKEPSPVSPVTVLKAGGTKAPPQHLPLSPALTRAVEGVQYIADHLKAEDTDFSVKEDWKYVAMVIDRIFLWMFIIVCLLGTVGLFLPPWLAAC
Chain of rat α4β2 nAChR (P12390 25-500): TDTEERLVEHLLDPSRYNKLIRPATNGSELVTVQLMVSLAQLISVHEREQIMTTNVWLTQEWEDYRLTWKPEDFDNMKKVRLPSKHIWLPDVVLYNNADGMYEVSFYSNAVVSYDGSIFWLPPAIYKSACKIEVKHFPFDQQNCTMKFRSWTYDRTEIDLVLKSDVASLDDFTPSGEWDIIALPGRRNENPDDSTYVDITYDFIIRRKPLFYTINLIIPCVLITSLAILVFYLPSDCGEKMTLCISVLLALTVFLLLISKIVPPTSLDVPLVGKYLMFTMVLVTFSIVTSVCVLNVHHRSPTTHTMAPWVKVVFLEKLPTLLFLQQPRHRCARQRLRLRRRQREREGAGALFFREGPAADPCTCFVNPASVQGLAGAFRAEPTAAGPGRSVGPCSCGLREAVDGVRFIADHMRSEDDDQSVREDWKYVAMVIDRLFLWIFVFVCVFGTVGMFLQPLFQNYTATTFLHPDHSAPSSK
Chain of rat α3β4 nAChR (P04757 26-499): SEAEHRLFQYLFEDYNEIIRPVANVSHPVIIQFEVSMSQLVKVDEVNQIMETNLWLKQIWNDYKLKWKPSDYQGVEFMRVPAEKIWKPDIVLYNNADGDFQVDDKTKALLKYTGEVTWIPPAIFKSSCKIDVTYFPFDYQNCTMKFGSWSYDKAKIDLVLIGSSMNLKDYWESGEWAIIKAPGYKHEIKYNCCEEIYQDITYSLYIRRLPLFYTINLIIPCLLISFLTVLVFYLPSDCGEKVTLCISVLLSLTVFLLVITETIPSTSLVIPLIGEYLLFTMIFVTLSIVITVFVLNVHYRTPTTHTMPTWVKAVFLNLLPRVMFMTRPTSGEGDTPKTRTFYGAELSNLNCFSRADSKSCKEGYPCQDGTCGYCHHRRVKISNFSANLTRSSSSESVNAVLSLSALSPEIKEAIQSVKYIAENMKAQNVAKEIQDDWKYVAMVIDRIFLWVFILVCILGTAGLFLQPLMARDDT
Chain of rat α3β4 nAChR (P12392 21-495): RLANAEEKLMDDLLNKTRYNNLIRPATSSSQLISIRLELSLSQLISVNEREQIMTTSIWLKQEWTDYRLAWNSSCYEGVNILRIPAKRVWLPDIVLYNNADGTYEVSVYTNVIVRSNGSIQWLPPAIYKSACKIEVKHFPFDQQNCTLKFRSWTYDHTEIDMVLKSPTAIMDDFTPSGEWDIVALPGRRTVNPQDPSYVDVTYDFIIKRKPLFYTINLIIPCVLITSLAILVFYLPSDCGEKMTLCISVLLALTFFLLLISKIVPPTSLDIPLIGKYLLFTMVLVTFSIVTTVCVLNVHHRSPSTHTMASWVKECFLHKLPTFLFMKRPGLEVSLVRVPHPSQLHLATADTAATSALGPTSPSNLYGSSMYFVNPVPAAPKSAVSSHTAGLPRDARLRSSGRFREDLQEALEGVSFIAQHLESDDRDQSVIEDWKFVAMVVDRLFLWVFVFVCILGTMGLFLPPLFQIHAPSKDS
T1 sequence (P36544 23-502): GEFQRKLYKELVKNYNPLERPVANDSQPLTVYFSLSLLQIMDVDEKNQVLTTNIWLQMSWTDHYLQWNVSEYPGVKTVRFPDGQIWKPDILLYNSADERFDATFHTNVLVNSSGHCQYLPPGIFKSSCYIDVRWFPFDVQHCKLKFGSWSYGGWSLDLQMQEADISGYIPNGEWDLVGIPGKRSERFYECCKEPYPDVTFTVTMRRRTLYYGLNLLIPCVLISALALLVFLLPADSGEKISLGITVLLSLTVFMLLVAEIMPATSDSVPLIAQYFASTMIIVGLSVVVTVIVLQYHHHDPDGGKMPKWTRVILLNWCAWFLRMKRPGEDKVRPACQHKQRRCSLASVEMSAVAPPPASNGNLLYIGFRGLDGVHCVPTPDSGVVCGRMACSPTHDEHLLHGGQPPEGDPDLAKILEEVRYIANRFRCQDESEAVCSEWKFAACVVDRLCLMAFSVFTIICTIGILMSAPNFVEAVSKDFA
T3 sequence (Q05941 23-502): as the sequence (Q05941 23-502) above
Chain of human α5β3γ2 GABAA receptor (P31644 32-462): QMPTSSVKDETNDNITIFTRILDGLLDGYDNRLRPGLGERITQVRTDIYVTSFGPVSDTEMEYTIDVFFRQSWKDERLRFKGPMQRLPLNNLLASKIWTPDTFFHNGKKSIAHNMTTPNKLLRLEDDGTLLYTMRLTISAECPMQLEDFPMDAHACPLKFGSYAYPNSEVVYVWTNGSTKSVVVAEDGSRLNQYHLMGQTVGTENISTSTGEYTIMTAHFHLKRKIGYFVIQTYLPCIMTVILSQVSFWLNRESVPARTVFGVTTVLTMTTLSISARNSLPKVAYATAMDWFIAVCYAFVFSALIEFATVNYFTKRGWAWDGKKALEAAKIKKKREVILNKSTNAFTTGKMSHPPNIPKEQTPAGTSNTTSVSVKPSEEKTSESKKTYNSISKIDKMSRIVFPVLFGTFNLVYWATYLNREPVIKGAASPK
Chain of human α5β3γ2 GABAA receptor (P28472 26-473): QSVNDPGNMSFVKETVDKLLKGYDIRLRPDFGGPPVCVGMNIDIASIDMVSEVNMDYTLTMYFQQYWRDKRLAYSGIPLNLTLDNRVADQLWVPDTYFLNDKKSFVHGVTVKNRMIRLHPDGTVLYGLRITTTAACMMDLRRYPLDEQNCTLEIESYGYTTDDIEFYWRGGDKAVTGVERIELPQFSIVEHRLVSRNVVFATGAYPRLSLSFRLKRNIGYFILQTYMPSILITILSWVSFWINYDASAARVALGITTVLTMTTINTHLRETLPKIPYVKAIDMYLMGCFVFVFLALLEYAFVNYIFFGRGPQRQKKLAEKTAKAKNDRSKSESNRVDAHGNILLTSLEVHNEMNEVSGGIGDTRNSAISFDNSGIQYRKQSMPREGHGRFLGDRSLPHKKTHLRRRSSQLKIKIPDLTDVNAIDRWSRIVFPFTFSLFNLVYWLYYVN
Chain of human α5β3γ2 GABAA receptor (P18507 40-475): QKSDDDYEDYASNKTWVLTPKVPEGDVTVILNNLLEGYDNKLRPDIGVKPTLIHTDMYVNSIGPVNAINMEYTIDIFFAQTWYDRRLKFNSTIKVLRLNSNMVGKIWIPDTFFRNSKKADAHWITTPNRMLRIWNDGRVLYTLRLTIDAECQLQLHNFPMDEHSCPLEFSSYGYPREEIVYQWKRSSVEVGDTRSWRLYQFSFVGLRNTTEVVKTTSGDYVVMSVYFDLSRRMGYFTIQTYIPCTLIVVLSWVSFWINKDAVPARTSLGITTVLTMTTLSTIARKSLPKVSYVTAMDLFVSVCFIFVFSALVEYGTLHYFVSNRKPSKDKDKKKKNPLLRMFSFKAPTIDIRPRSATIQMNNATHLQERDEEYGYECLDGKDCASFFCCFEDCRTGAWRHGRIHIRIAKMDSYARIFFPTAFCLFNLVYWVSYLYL
Chain of human α3β3γ2 GABAA receptor (P34903 29-492): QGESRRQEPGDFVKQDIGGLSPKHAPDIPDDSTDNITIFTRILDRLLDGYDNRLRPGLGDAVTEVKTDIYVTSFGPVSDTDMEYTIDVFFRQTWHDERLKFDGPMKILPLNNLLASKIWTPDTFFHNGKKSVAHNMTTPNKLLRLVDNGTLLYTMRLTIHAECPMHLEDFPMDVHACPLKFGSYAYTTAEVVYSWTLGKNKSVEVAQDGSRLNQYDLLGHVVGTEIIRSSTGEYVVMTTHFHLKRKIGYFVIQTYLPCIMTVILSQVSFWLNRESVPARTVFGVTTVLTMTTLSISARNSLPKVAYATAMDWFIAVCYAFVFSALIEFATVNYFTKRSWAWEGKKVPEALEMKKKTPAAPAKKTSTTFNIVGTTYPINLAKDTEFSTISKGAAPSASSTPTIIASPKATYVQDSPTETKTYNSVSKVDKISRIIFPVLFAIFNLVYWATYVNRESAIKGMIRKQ
Chain of human α3β3γ2 GABAA receptor (P28472 26-473): as the sequence (P28472 26-473) above
Chain of human α3β3γ2 GABAA receptor (P18507 40-475): as the sequence (P18507 40-475) above

Structure (SMILES): CCN1C[C@]2(COC(=O)c3ccccc3N3C(=O)C[C@H](C)C3=O)CC[C@H](OC)[C@@]34[C@@H]5C[C@H]6[C@H](OC)[C@@H]5[C@](O)(C[C@@H]6OC)[C@@](O)([C@@H](OC)[C@H]23)[C@@H]14 [MLA, methyllycaconitine]
Effect of MLA on Br-IQ17B-evoked native α7 current [1]: completely blocked | Effect of MLA on α7 current evoked by Br-IQ17B ([2]; 10 nmol/L MLA, 30 μmol/L Br-IQ17B): inhibited; also recorded: completely blocked

Structure (SMILES): CC(=O)OCC[N+](C)(C)C [ACh, acetylcholine]
Current evoked in hippocampal neurons [1]: evoked α7 currents with fast onset and rapid decay

Effect of PNU-120596 on current activated by Br-IQ17B [1]: significantly enhanced | Effect of PNU-120596 on current evoked by low concentration of ACh ([1]; PNU-120596 1 μmol/L, ACh 10 μmol/L): robustly increased
Structure (SMILES): COc1cc(OC)c(NC(=O)Nc2cc(C)on2)cc1Cl [PNU-120596]
sIPSC frequency with PNU-120596 alone ([3]; PNU-120596 1 μmol/L, 10 min, baseline 4.5±0.7 Hz): 4.6±0.7 Hz | sIPSC amplitude with PNU-120596 alone ([3]; PNU-120596 1 μmol/L, 10 min, baseline 30.8±6.8 pA): 30.6±4.7 pA | Effect of PNU-120596 alone on basal pERK/tERK ratio [4]: slight increase

Structure (SMILES): O=C(N[C@H]1CN2CCC1CC2)c1cc2cccc(Cl)c2s1 [EVP-6124]
EC50 [2]: 0.45 ± 0.08 µM | Concentration needed to reach 30% of the response of ACh [2]: 3 µmol/L | Maximal response vs 3 mmol/L ACh [2]: 30.6%±1.8%

Structure (SMILES): O=C(N[C@H]1CN2CCC1CC2)c1cc2cccc(Br)n2c1 [Br-IQ17B, N-[(3R)-1-azabicyclo[2,2,2]oct-3-yl]-5-bromoindolizine-2-carboxamide]
sIPSC frequency with co-application of PNU-120596 and Br-IQ17B ([3]; Br-IQ17B 10 μmol/L + PNU-120596 1 μmol/L, 1–5 min, from 4.6±0.7 Hz): 7.8±0.7 Hz | Increase of IPSC peak amplitudes of individual neurons ([3]; Br-IQ17B 10 μmol/L + PNU-120596 1 μmol/L, 5 out of 6 neurons, vs control or PNU120596 alone): 1.3 to 4.9 times | IPSC amplitude in the one neuron out of six without amplitude change ([3]; co-application of Br-IQ17B and PNU-120596, vs 25.3±1.4 pA): 25.9±1.2 pA | Current evoked in hippocampal neurons [1]: evoked α7 currents with fast onset and rapid decay | EC50 [5]: > 100 µM | Maximum effect vs 3 mmol/L ACh or 10 μmol/L 5-HT ([5]; 5-HT3A, Human): 0 | Agonist activity on 5-HT3A ([5]; Br-IQ17B alone, 0.1–100 μmol/L): did not show any agonist activities | Hill coefficient, inhibition of 5-HT3A ([5]; co-applied with 10 μmol/L 5-HT): 2.1±0.1 | Hill coefficient in the presence of PNU-120596 ([2]; co-applied with 1 μmol/L PNU-120596): 2.4±0.1 | Hill coefficient, activation of α7 current ([2]; compound alone): 1.2±0.1 | Concentration needed to reach 30% of the response of ACh [2]: 1.5 µmol/L | Maximal response vs 3 mmol/L ACh [2]: 64.3%±3.6% | Allosteric modulation of GABAA α3β3γ2 [6, 15]: no allosteric modulation | Effect on GABAA α3β3γ2 [6, 16]: no observable effects | EC50 [7]: > 100 µM | IC50 [7]: > 100 µM | Agonist activity on α4β2 [7, 17]: did not induce any current; also recorded: no detectable agonist activity | Effect on ACh-evoked α4β2 current ([7]; pre-incubation 1 min or co-application with ACh): no enhancement or inhibition | Maximum effect vs 3 mmol/L ACh or 10 μmol/L 5-HT ([7]; α4β2, Rat): 0 | Allosteric modulation of GABAA α2β3γ2 [8, 15]: no allosteric modulation | Effect on GABAA α2β3γ2 [8, 16]: no observable effects | EC50 [9]: > 100 µM | Agonist activity on α3β4 [9, 17]: did not induce any current; also recorded: no detectable agonist activity | IC50 ([9]; IC50, inhibition of ACh-evoked α3β4 current, co-applied with 300 μmol/L ACh): ~382 µM and 382 µM and ~381 µM | Hill coefficient, inhibition of α3β4 ([9]; co-applied with 300 μmol/L ACh): 0.9±0.1 | Maximum effect vs 3 mmol/L ACh or 10 μmol/L 5-HT ([9]; α3β4, Rat): 0 | IC50 [10]: 0.0285 ± 0.0025 µM | Effect of low concentration on ACh-mediated peak current ([10]; 3 nmol/L Br-IQ17B, 100 μmol/L ACh): increased the ACh-mediated peak current | Hill coefficient, inhibition of ACh-evoked α7 current ([10]; 1-min sustained exposure, then 100 μmol/L ACh): 2.8±0.3 | Fold more potent than ACh in [3H]-MLA displacement [11]: approximately 300 fold | Ki [12]: 0.0149 ± 0.0032 µM | Allosteric modulation of GABAA α5β3γ2 [13, 15]: no allosteric modulation | Effect on GABAA α5β3γ2 [13, 16]: no observable effects | Allosteric modulation of GABAA α1β3γ2 [14, 15]: no allosteric modulation | Effect on GABAA α1β3γ2 [14, 16]: no observable effects

— publication PMC4648113 (Acta Pharmacologica Sinica, 2015)
